Assay results as given in ChEMBL document CHEMBL1130662, “Preparation of meta-amidino-N,N-disubstituted anilines as potent inhibitors of coagulation factor Xa” (Bioorg Med Chem Lett, 1998).

Legend:
Coagulation factor X [1] = target: T1, Coagulation factor X (Oryctolagus cuniculus, UniProt O19045); experiment: Inhibition of serine protease factor Xa enzyme.
T1 sequence (O19045 whole entry): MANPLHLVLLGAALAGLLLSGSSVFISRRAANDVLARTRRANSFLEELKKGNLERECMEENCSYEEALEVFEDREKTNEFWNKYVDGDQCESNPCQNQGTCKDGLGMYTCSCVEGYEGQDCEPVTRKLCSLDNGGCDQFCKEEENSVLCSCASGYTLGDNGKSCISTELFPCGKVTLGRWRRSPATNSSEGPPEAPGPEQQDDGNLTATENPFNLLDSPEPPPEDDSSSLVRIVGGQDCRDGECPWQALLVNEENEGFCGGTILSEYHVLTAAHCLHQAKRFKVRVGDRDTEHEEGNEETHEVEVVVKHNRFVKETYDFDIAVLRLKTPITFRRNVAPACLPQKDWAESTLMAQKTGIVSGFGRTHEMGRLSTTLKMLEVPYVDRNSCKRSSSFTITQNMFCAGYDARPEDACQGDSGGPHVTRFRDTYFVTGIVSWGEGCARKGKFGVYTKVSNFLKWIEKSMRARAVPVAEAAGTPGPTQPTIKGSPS

Trypsin = Trypsin (Homo sapiens, UniProt P07477+P07478+P35030); experiment: Inhibition of serine protease trypsin enzyme.; type: protein assay, Oryctolagus cuniculus
Prothrombin = Prothrombin (Homo sapiens, UniProt P00734); experiment: Inhibition of serine protease thrombin enzyme.
[2] = Compound was tested for the inhibition of serine protease complement factor I enzyme.; set-up: species or system Oryctolagus cuniculus
Plasminogen = Plasminogen (Homo sapiens, UniProt P00747); experiment: Compound was tested for the inhibition of serine protease plasmin enzyme.; set-up: species or system Oryctolagus cuniculus
[3] = target: Tissue-type plasminogen activator (Homo sapiens, UniProt P00750); experiment: Compound was tested for the inhibition of serine protease tissue plasminogen activator enzyme.; set-up: species or system Oryctolagus cuniculus
Coagulation factor VII = target: T2, Coagulation factor VII (Homo sapiens, UniProt P08709); experiment: Compound was tested for the inhibition of serine protease factor VIIa enzyme.; set-up: species or system Oryctolagus cuniculus
T2 sequence (P08709 whole entry): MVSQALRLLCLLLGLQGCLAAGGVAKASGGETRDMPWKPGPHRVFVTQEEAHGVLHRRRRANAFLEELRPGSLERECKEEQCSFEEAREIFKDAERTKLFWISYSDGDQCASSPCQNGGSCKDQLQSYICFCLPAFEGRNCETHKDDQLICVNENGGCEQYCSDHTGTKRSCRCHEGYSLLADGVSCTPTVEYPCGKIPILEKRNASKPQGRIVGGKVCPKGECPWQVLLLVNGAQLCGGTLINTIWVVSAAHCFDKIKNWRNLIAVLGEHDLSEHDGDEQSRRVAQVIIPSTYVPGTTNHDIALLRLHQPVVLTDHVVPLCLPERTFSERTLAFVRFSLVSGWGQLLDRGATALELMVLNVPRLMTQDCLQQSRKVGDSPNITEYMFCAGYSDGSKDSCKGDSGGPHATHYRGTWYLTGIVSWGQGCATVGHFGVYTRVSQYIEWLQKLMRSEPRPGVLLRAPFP

Coagulation factor X [4] = target: T1, Coagulation factor X; experiment: Compound was tested for the inhibition of serine protease factor Xa enzyme.

Chain of Tissue-type plasminogen activator (P00750 whole entry): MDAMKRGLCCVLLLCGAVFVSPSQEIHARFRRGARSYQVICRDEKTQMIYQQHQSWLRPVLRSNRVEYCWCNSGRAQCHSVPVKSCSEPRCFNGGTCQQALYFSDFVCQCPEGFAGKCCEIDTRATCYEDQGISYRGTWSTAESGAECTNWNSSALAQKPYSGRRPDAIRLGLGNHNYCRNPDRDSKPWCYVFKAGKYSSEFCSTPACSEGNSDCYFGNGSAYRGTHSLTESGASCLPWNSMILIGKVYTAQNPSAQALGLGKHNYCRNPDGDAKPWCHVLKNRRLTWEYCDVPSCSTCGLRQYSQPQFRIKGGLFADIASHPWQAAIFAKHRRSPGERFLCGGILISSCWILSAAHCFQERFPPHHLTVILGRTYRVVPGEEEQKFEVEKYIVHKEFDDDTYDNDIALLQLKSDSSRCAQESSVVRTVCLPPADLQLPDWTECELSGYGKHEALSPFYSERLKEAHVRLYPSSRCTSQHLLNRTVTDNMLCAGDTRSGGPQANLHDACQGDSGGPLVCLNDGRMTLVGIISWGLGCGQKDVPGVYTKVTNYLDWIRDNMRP
Chain of Plasminogen (P00747 97-580 limits assumed): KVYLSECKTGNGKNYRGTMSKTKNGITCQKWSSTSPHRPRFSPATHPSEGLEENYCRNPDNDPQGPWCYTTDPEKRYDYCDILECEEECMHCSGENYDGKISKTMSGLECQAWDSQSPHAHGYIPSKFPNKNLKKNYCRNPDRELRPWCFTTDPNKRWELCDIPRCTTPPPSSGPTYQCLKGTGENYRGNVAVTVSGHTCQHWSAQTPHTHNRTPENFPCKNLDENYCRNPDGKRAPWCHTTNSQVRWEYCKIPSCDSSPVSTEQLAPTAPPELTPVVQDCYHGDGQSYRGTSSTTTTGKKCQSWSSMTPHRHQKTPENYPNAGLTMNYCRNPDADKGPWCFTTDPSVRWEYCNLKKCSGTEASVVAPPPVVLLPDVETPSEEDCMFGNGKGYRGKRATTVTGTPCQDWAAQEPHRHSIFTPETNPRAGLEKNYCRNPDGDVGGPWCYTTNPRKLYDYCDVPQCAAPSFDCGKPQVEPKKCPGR
Chain of Plasminogen (P00747 581-810 limits assumed): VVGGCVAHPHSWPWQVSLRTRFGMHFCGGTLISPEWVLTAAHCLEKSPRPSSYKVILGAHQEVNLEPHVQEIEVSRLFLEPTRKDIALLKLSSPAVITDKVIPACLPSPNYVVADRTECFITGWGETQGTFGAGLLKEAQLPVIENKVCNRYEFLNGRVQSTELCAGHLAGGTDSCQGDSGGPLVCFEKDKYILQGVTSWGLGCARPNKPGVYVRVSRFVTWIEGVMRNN

SMILES | Ki (Coagulation factor X [1]) | Ki (Trypsin) | Ki (Prothrombin) | also measured
COC(=O)CN(CCc1ccc(-c2ccccc2S(N)(=O)=O)cc1)c1cccc(C(=N)N)c1.O=C(O)C(F)(F)F | 10 nM | 56 nM | 400 nM | 
N=C(N)c1cccc(N(CCO)CCCc2ccc(-c3ccccc3S(N)(=O)=O)cc2)c1.O=C(O)C(F)(F)F | 17 nM | 710 nM | 1800 nM | 
CC(=O)CN(CCCc1ccc(-c2ccccc2S(N)(=O)=O)cc1)c1cccc(C(=N)N)c1.O=C(O)C(F)(F)F | 16 nM | 360 nM | 900 nM | 
COC(=O)CN(CCCOc1ccc(-c2ccccc2S(N)(=O)=O)cc1)c1cccc(C(=N)N)c1.O=C(O)C(F)(F)F | 6.7 nM | 77 nM | 600 nM | 
N=C(N)c1cccc(N(CCCc2ccc(-c3ccccc3S(N)(=O)=O)cc2)CC(=O)O)c1.O=C(O)C(F)(F)F | 12 nM | 470 nM | 1400 nM | 
COC(=O)CN(CCCc1ccc(-c2ccccc2S(N)(=O)=O)cc1)c1cccc(C(=N)N)c1.O=C(O)C(F)(F)F | 1.3 nM | 39 nM | 200 nM | IC50 [2]: 10 µM; Ki (Plasminogen): 300 nM; Ki [3]: 33 µM; Ki (Coagulation factor VII): 4.2 µM
COC(=O)CC1(C(=O)Nc2ccc(-c3ccccc3S(N)(=O)=O)cc2)CC(c2cccc(C(=N)N)c2)=NO1 (stereo not given) | 6.3 nM |  |  | 
CC(C)OC(=O)CN(CCCc1ccc(-c2ccccc2S(N)(=O)=O)cc1)c1cccc(C(=N)N)c1.O=C(O)C(F)(F)F | 7.5 nM | 74 nM | 500 nM | 
COC(=O)CC(CCc1ccc(C(=N)N)cc1)c1cccc(C(=N)N)c1 (stereo not given) | 34 nM |  |  | 
COC(=O)CN(CCOc1ccc(-c2ccccc2S(N)(=O)=O)cc1)c1cccc(C(=N)N)c1.O=C(O)C(F)(F)F | 0.53 nM | 19 nM | 200 nM | 
N=C(N)c1cccc(N(CCCc2ccc(-c3ccccc3S(N)(=O)=O)cc2)CCOc2ccccc2)c1 | 16 nM |  | 300 nM | 
CC(C)OC(=O)CN(CCOc1ccc(-c2ccccc2S(N)(=O)=O)cc1)c1cccc(C(=N)N)c1.O=C(O)C(F)(F)F | 2.1 nM | 52 nM | 300 nM | 
N=C(N)c1cccc(NS(=O)(=O)CCc2ccc(-c3ccccc3S(N)(=O)=O)cc2)c1.O=C(O)C(F)(F)F | 51 nM | 1400 nM | 17000 nM | 
COCCN(CCCc1ccc(-c2ccccc2S(N)(=O)=O)cc1)c1cccc(C(=N)N)c1.O=C(O)C(F)(F)F | 11 nM | 330 nM | 900 nM | 
N=C(N)c1cccc(NCCCc2ccc(-c3ccccc3S(N)(=O)=O)cc2)c1.O=C(O)C(F)(F)F | 83 nM | 850 nM | 6100 nM | 
COC(=O)CC1(C(=O)Nc2ccc(C(=N)N)cc2)CC(c2cccc(C(=N)N)c2)=NO1 (stereo not given) | 94 nM |  |  | 
CC(C)OC(=O)CN(c1cccc(C(=N)N)c1)S(=O)(=O)CCc1ccc(-c2ccccc2S(N)(=O)=O)cc1.O=C(O)C(F)(F)F | 37 nM | 220 nM | 15000 nM | 
N=C(N)c1cccc(N(CCCc2ccc(-c3ccccc3S(N)(=O)=O)cc2)CC(N)=O)c1.O=C(O)C(F)(F)F | 19 nM | 820 nM | 3500 nM | 
COC(=O)CN(c1cccc(C(=N)N)c1)S(=O)(=O)CCc1ccc(-c2ccccc2S(N)(=O)=O)cc1.O=C(O)C(F)(F)F | 21 nM | 180 nM | 9000 nM | 
CC(=N)N1CC[C@H](Oc2ccc([C@H](Cc3ccc4ccc(C(=N)N)cc4c3)C(=O)O)cc2)C1 [DX-9065A] |  |  |  | IC50 (Coagulation factor X [4]): 41 nM
